“Also recorded” adds a separate entry of the source. Where two headings read alike, the source gives them in different places.
Experiments:
[1] = test system: T. cruzi (Tulahuen strain); assay: microbe, parasite or virus in culture; format: cell-based, Trypanosoma cruzi; details: for EC50: read-out: T. cruzi EC50; for activity at 10 µM: Table S2, read-out: T. cruzi % growth @ 10 uM (Amastigotes)
Outline: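 Tulahuen parasites expressing beta-galactosidase were added (1×10^4 trypomastigotes/well) to 3T3 fibroblasts plated 24 h earlier, 4 h before compound (10 µM final).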

in vitro = format: cell-based, murine; details: mouse
[2] = test system: T. cruzi (Tulahuen strain); assay: Mouse model of acute T. cruzi infection; format: in vivo, BALB/c mice; details: oral gavage days 7-11 post-infection, doses of Table 5
Description: Age 8–10 week-old BALB/c female mice were obtained from Harlan Laboratories. Mice were infected with 1×10^4 tissue culture derived wild-type trypomastigotes of the Tulahuen strain by subcutaneous injection on day 0. They were administered test drugs in groups of five by oral gavage on days 7–11. All drugs were dissolved in vehicle composed of sodium carboxymethylcellulose 0.5% w/v, benzyl alcohol 0.5% v/v, Tween 80 0.4% v/v diluted in 0.9% aqueous NaCl solution. Parasitemia was quantified by examining tail blood specimens at times points indicated in Figures 2, 3, S4, and S5 as previously described.
Selected drugs identified in the above screens were tested alone or in combination in the mouse model of T. cruzi infection. In the first experiment, we focused on posaconazole and benznidazole because of their advanced clinical status for treating Chagas disease. Since benznidazole and posaconazole are known to have curative activity as monotherapies, we used sub-curative doses so that additive or synergistic interactions could be detected when used in combinations. The other drugs were administered at doses described in the literature for treating mice. Briefly, mice were gavaged once or twice daily with a given drug or combination on days 7–11 post-infection. We conducted a second experiment (Figure 3) examining the same drugs with the purpose of confirming and expanding upon the initial results shown in Figure 2.

3T3 fibroblast cells = assay: cells; format: cell-based, murine; details: for activity at 10 µM: Mus musculus, NIH3T3, 72 h, Table S2, read-out: Mammalian (3T3) cell % growth at 10 uM
T. cruzi amastigotes = assay: Combination screen of drug pairs at EC25; format: cell-based, Trypanosoma cruzi; details: at EC25, alone or in combination
Description: […] compounds were selected for testing in combinations. All two-way combinations were tested (300 experiments). First, EC25 concentrations were determined for the individual compounds against T. cruzi amastigotes as described above. To test for synergy, compounds were evaluated in quadruplicate individually at the experimentally determined EC25, and in combination with other compounds at each respective EC25 concentration (further explained in the Discussion section). For inclusion in downstream analysis, each individual compound in a pair was required to inhibit 25±10% of growth in positive control (untreated) wells. If not in this range, the experiment was repeated. The measured growth of T. cruzi amastigotes was compared to the predicted effect of the combination as follows. Assuming a simple additive effect, the predicted inhibition of the drug pairs was expected to be the product of the percent-growths of each compound when tested alone. For example, if compound A gave 75% growth of the control and compound B gave 80% of the control growth, then the combination would be predicted to be 60% (i.e., 75%×80% = 60%).
Cells in green indicate a greater effect than predicted (“synergism”) and the squares in red indicate a lesser effect than predicated (“antagonism”).

T. brucei = details: cited from earlier work
[3] = Trypanosoma cruzi, TULAHUEN, Fibroblast, 120 h, intracellular amastigotes, 5 days, separate assays separated by semicolons
[4] = 3T3 fibroblasts, 72 hours, separate assays separated by semicolons, read-out: Mammalian cell CC50
[5] = Trypanosoma cruzi, TULAHUEN, Fibroblast, 120 h
[6] = average mammalian cell CC50 divided by average T. cruzi EC50
[7] = intracellular amastigotes, 5 days, separate assays separated by semicolons

| SMILES | Selectivity index [1] | EC50 [1, 3] [µM] | CC50 (in vitro; [4]) [nM] | parasitemia [2] | activity at 10 µM [1, 5] [%] | activity at 10 µM (3T3 fibroblast cells) [%] | Selectivity index [1, 6] | also measured |
| --- | --- | --- | --- | --- | --- | --- | --- | --- |
| Oc1ncnc2[nH]ncc12 [Allopurinol] | >17.9 | 2.8 | > 50000 | slight effects | – | – | – | – |
| CCOC(=O)C1=C(COCCN)NC(C)=C(C(=O)OC)C1c1ccccc1Cl.O=S(=O)(O)c1ccccc1 (centres unmarked) [Amlodipine, 3-ethyl 5-methyl 2-[(2-aminoethoxy)methyl]-4-(2-chlorophenyl)-6-methyl-1,4-dihydropyridine-3,5-dicarboxylate; benzenesulfonic acid] | 11.8 | 1.1 | – | no differences compared to the vehicle treated mice; also recorded: slight effects | 13.3 | 100 | – | CC50 (in vitro; Mammalian cell CC50 (nM)): 13000 nM |
| O=C(Cn1ccnc1[N+](=O)[O-])NCc1ccccc1 [Benznidazole] | – | 0.65 | > 25000 | some attenuation of parasitemia | – | – | >40 | EC50 [1, 7]: 0.6 µM |
| CN1CCCC1CCOC(C)(c1ccccc1)c1ccc(Cl)cc1 (centres unmarked) [Clemastine, 2-{2-[1-(4-chlorophenyl)-1-phenylethoxy]ethyl}-1-methylpyrrolidine] | – | – | – | no differences compared to the vehicle treated mice | – | 93.2 | – | % of normal growth (T. cruzi amastigotes): 74% |
| Clc1ccc(C(OCCN2CCCCC2)c2ccccc2)cc1 (centres unmarked) [Cloperastine, 1-{2-[(4-chlorophenyl)(phenyl)methoxy]ethyl}piperidine] | – | 5.8 | 21400 | – | 1.2 | 100 | 3.8 | % of normal growth (T. cruzi amastigotes): 79%; EC50 [1, 7]: 5.6 µM |
| CC[C@@H]([C@H](C)O)n1ncn(-c2ccc(N3CCN(c4ccc(OC[C@@H]5CO[C@@](Cn6cncn6)(c6ccc(F)cc6F)C5)cc4)CC3)cc2)c1=O [Posaconazole] | – | – | – | some attenuation of parasitemia | – | – | – | – |
| CCc1nc(N)nc(N)c1-c1ccc(Cl)cc1 [Pyrimethamine, 5-(4-chlorophenyl)-6-ethylpyrimidine-2,4-diamine] | – | 3.82 | 28500 | – | 24.2 | 97.6 | 7.5 | EC50 ([1]; Trypanosoma cruzi, TULAHUEN, Fibroblast): 3.8 µM; EC50 (T. brucei): 17 µM |
| Nc1nc(N)c2nc(-c3ccccc3)c(N)nc2n1 [Triamterene, 6-phenylpteridine-2,4,7-triamine] | 11.4 | 1.66 | 23000 | – | 17.3 | 72.7 | – | EC50 ([1]; Trypanosoma cruzi, TULAHUEN, Fibroblast, Table S2, amastigotes): 18.9 µM; activity against T. brucei (T. brucei; no reference given): 48 µM; CC50 (3T3 fibroblast cells; [4]): 14.8 µM |
